Laboratory results from US9150527B2, “Metalloenzyme inhibitor compounds” (Innocrin Pharmaceuticals, Inc., priority 2011, dated 2015).

Experiments:
CYP17 = CYP17 (Rattus norvegicus (Rat), UniProt P11715); experiment: CYP17 metalloenzyme activity, rat testicular microsomes; format: biochemical; conditions: pooled rat testicular microsomes
Protocol: CYP17 activity was assayed according to the following procedure.

CYP2C9 = CYP2C9 (Homo sapiens (Human), UniProt P11712); experiment: biochemical
CYP2C19 = CYP2C19 (Homo sapiens (Human), UniProt P33261); experiment: biochemical
CYP3A4 = CYP3A4 (Homo sapiens (Human), UniProt P08684); experiment: Inhibition of liver cytochrome P450 enzymes, pooled human liver microsomes
CYP3A4, sequence (P08684 whole entry): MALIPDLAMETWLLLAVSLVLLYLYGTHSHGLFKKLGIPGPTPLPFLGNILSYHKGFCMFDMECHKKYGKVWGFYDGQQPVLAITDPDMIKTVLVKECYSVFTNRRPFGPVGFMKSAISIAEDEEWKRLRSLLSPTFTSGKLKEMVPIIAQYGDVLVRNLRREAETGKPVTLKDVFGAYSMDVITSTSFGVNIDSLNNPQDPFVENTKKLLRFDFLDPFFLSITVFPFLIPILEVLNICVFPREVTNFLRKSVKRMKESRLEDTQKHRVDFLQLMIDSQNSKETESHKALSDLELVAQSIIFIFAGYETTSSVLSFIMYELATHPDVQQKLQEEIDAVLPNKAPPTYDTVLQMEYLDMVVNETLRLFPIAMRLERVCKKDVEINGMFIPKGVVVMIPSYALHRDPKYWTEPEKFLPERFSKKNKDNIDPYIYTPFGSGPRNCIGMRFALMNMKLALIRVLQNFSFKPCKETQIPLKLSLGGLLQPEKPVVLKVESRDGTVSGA

CYP17, sequence (P11715 whole entry): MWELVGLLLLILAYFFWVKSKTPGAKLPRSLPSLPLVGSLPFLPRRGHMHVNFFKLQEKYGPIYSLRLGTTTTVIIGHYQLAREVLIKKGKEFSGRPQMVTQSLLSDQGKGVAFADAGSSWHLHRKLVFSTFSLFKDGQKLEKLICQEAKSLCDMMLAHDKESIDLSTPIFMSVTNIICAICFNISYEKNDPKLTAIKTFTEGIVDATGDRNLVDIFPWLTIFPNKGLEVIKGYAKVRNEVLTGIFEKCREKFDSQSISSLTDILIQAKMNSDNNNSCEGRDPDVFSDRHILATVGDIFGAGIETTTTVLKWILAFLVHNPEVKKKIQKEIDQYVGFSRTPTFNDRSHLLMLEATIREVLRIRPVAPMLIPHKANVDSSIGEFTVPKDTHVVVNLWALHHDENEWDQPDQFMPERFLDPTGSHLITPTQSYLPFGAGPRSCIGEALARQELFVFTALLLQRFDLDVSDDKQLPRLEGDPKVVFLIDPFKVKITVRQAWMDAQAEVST
CYP2C19, sequence (P33261 whole entry): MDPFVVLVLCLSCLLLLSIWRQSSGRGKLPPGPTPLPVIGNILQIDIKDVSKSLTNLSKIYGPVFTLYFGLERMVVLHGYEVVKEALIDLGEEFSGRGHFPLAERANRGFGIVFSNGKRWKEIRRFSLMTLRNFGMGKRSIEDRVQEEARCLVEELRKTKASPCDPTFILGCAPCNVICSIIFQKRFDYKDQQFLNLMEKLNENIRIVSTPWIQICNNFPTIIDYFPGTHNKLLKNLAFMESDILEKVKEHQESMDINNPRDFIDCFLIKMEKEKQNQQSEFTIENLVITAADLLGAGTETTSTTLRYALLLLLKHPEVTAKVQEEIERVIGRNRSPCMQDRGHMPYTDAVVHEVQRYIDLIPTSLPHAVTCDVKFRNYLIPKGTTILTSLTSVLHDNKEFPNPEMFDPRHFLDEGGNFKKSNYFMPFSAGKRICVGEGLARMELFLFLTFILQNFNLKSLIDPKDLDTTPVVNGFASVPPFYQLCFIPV
CYP2C9, sequence (P11712 whole entry): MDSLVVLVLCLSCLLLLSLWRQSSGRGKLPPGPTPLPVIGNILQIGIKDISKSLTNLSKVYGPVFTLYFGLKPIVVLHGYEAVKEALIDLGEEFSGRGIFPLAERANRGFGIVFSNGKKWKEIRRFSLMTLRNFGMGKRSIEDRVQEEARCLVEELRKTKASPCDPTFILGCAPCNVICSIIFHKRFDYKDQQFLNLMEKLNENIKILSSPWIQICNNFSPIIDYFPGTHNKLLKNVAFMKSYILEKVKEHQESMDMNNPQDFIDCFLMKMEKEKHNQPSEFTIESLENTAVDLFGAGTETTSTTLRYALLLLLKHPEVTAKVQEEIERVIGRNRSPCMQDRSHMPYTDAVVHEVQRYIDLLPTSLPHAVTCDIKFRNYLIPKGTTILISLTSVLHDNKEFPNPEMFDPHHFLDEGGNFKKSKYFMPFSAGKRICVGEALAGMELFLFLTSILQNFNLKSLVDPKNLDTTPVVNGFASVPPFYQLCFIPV

For `COc1cc2ccc(C(O)(c3cncs3)C(C)C)cc2cc1OC` (stereo not shown) [Example 2, 1-(6,7-dimethoxynaphthalen-2-yl)-2-methyl-1-(thiazol-5-yl)propan-1-ol], the IC50 (CYP17) was 0.29 µM, the IC50 (CYP2C9) was 33 µM and the IC50 (CYP2C19) was 3 µM. The IC50 (CYP3A4) was 0.77 µM.
